In patent publication US20230203058A1, “MACROCYCLIC DIAMINE DERIVATIVES AS ENT INHIBITORS FOR THE TREATMENT OF CANCERS, AND COMBINATION THEREOF WITH ADENOSINE RECEPTOR ANTAGONISTS” (ITEOS BELGIUM SA, priority 2020, published 2023):

Target: T1, human ENT1 (Homo sapiens, UniProt Q99808)
T1 sequence (Q99808 1-456): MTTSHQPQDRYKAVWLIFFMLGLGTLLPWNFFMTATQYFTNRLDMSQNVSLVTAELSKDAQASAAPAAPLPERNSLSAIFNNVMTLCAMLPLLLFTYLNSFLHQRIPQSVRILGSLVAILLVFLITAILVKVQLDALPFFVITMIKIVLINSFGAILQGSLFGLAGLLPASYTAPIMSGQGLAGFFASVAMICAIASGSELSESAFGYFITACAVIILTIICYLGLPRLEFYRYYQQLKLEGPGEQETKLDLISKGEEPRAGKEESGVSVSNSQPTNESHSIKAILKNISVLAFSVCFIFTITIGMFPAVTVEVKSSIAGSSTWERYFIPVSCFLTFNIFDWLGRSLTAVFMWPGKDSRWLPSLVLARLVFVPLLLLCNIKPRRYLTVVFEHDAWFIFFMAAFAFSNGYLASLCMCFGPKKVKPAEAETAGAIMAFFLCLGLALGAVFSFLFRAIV
Assay: ENT1 binding assay (competition with Sahenta-DY647 on JAR cells)
Set-up: JAR cells expressing ENT1 were bought from ATCC® (HTB-144TM); host or cells: JAR cells (human choriocarcinoma line; whole cells)
Conditions: competition with Sahenta-DY647 100 nM, 4° C.
Method: The present assay aims at showing that the compounds of the present invention can bind to human ENT1. The principle of the assay is a competition between the compounds of this invention and Sahenta-DY647, an ENT1 inhibitor that emits fluorescence (Ex = 630 nm, Em = 670 nm). By measuring the fluorescence at the end of the assay we could assess the binding potency of the compounds of the present invention.
JAR cells expressing ENT1 were bought from ATCC® (HTB-144TM). Cells were cultured in RPMI 1640 medium (LONZA®, #BE12-702F/U1) supplemented with 10% FBS (GIBCO®, #10270-106), 10 mM Hepes (LONZA®, #BE17-737E), 1 mM Sodium Pyruvate (LONZA®, #BE13-115E) and 2% Penicillin/Streptomycin (LONZA®, #DE17-603E) at 37° C. and 5% CO2. The assay was conducted on the following buffer: HBSS (LONZA®, #LO-527F) supplemented with 10 mM Hepes (LONZA®, #BE17-737E) and 0.1% BSA (Miltenyi®, #130-091-376) on the day of the assay. JAR cells were resuspended in the described buffer. Compounds of the present invention and Sahenta-DY647 were diluted 200X in the described buffer.
A total of 50000 cells were pre-incubated for 30 min at 4° C. with the compounds of the present invention before adding the corresponded IC90 of Sahenta-DY647 (100 nM) and incubate once more for 30 min at 4° C. The total volume of the reaction was 100 µL (50 µL of cells, 25 µL of the compounds of the present invention and 25 µL of Sahenta-DY647) in a 96 well plate, U-bottom (Greiner®, #650-180). The plates were washed 2X by centrifugation (4 min, 400 rcf at 4° C.) in the same buffer. Cells were resuspended in 70 µL of the buffer and 50 µL was transferred to a Black 384 Optiplate (PerkinElmer®, #6007279). Fluorescence (Ex = 630 nm, Em = 670 nm) was acquired on a Spectramax i3x (Molecular Devices®).

| Compound | IC50 |
| --- | --- |
| COc1cc2cc(c1OC)OCCCC(OC(=O)c1ccc(O)cc1)CCN1CCCN(CCCOC2=O)CC1 (centres unmarked) [Compound 41, 74,75-dimethoxy-6-oxo-5,8-dioxa-1(1,4)-diazepana-7(1,3)-benzenacyclotetradecaphane-12-yl 4-hydroxybenzoate] | 1 to 20 nM |
| COc1cc2cc(c1OC)OCCCC(OC(=O)c1cccc(C(F)(F)F)c1)CCN1CCCN(CCCOC2=O)CC1 (centres unmarked) [Compound 44, 74,75-dimethoxy-6-oxo-5,8-dioxa-1(1,4)-diazepana-7(1,3)-benzenacyclotetradecaphane-12-yl 3-(trifluoromethyl)benzoate] | 1 to 20 nM |
| COc1cc2cc(c1OC)OCCCC(OC(=O)c1cccc(S(C)(=O)=O)c1)CCN1CCCN(CCCOC2=O)CC1 (centres unmarked) [Compound 45, 74,75-dimethoxy-6-oxo-5,8-dioxa-1(1,4)-diazepana-7(1,3)-benzenacyclotetradecaphane-12-yl 3-(methylsulfonyl)benzoate] | 1 to 20 nM |
| COc1cc2cc(c1OC)OCCCC(OC(=O)c1ccccc1F)CCN1CCCN(CCCOC2=O)CC1 (centres unmarked) [Compound 47, 74,75-dimethoxy-6-oxo-5,8-dioxa-1(1,4)-diazepana-7(1,3)-benzenacyclotetradecaphane-12-yl 2-fluorobenzoate] | 1 to 20 nM |
| COc1cc2cc(c1OC)OCCCC(OC(=O)c1ccc(Br)c(C#N)c1)CCN1CCCN(CCCOC2=O)CC1 (centres unmarked) [Compound 48, 74,75-dimethoxy-6-oxo-5,8-dioxa-1(1,4)-diazepana-7(1,3)-benzenacyclotetradecaphane-12-yl 4-bromo-3-cyanobenzoate] | 1 to 20 nM |
| COc1cc2cc(c1OC)OCCCC(OC(=O)c1cc(C)cc(C(F)(F)F)c1)CCN1CCCN(CCCOC2=O)CC1 (centres unmarked) [Compound 49, 74,75-dimethoxy-6-oxo-5,8-dioxa-1(1,4)-diazepana-7(1,3)-benzenacyclotetradecaphane-12-yl 3-methyl-5-(trifluoromethyl)benzoate] | 20 to 500 nM |
| COc1ccc(C(=O)OC2CCCOc3cc(cc(OC)c3OC)C(=O)OCCCN3CCCN(CC2)CC3)c(F)c1 (centres unmarked) [Compound 50, 74,75-dimethoxy-6-oxo-5,8-dioxa-1(1,4)-diazepana-7(1,3)-benzenacyclotetradecaphane-12-yl 2-fluoro-4-methoxybenzoate] | 1 to 20 nM |
| COc1ccc(C(=O)OC2CCCOc3cc(cc(OC)c3OC)C(=O)OCCCN3CCCN(CC2)CC3)c(OC(F)(F)F)c1 (centres unmarked) [Compound 51, 74,75-dimethoxy-6-oxo-5,8-dioxa-1(1,4)-diazepana-7(1,3)-benzenacyclotetradecaphane-12-yl 4-methoxy-2-(trifluoromethoxy)benzoate] | 20 to 500 nM |
| COc1cc2cc(c1OC)OCCCC(OC(=O)c1cccnc1)CCN1CCCN(CCCOC2=O)CC1 (centres unmarked) [Compound 53, 74,75-dimethoxy-6-oxo-5,8-dioxa-1(1,4)-diazepana-7(1,3)-benzenacyclotetradecaphane-12-yl nicotinate] | 1 to 20 nM |
| COc1cc2cc(c1OC)OCCCC(OC(=O)c1ccc(O)nc1)CCN1CCCN(CCCOC2=O)CC1 (centres unmarked) [Compound 55, 74,75-dimethoxy-6-oxo-5,8-dioxa-1(1,4)-diazepana-7(1,3)-benzenacyclotetradecaphane-12-yl 6-hydroxynicotinate] | 1 to 20 nM |
| COc1cc2cc(c1OC)OCCCC(OC(=O)c1cccc3ncccc13)CCN1CCCN(CCCOC2=O)CC1 (centres unmarked) [Compound 56, 74,75-dimethoxy-6-oxo-5,8-dioxa-1(1,4)-diazepana-7(1,3)-benzenacyclotetradecaphane-12-yl quinoline-5-carboxylate] | 1 to 20 nM |
| COc1cc2cc(c1OC)OCCCC(OC(=O)c1cocn1)CCN1CCCN(CCCOC2=O)CC1 (centres unmarked) [Compound 57, 74,75-dimethoxy-6-oxo-5,8-dioxa-1(1,4)-diazepana-7(1,3)-benzenacyclotetradecaphane-12-yl oxazole-4-carboxylate] | 1 to 20 nM |
| COc1cc2cc(c1OC)OCCCC(OC(=O)CC(C)C)CCN1CCCN(CCCOC2=O)CC1 (centres unmarked) [Compound 61, 74,75-dimethoxy-6-oxo-5,8-dioxa-1(1,4)-diazepana-7(1,3)-benzenacyclotetradecaphane-12-yl 3-methylbutanoate] | 20 to 500 nM |
| COc1cc2cc(c1OC)OCCCC(OC(=O)CCC(F)(F)F)CCN1CCCN(CCCOC2=O)CC1 (centres unmarked) [Compound 62, 74,75-dimethoxy-6-oxo-5,8-dioxa-1(1,4)-diazepana-7(1,3)-benzenacyclotetradecaphane-12-yl 4,4,4-trifluorobutanoate] | 1 to 20 nM |
| COc1cc2cc(c1OC)OCCCC(OC(=O)C1CCCCC1)CCN1CCCN(CCCOC2=O)CC1 (centres unmarked) [Compound 63, 74,75-dimethoxy-6-oxo-5,8-dioxa-1(1,4)-diazepana-7(1,3)-benzenacyclotetradecaphane-12-yl cyclohexanecarboxylate] | 1 to 20 nM |
| COc1cc2cc(c1OC)OCCCC(OC(=O)C1CCN(C)CC1)CCN1CCCN(CCCOC2=O)CC1 (centres unmarked) [Compound 64, 74,75-dimethoxy-6-oxo-5,8-dioxa-1(1,4)-diazepana-7(1,3)-benzenacyclotetradecaphane-12-yl 1-methylpiperidine-4-carboxylate] | > 500 nM |
| COc1cc2cc(c1OC)OCCCC(OC(=O)C1CC(C)(C)C1)CCN1CCCN(CCCOC2=O)CC1 (centres unmarked) [Compound 65, 74,75-dimethoxy-6-oxo-5,8-dioxa-1(1,4)-diazepana-7(1,3)-benzenacyclotetradecaphane-12-yl 3,3-dimethylcyclobutane-1-carboxylate] | 20 to 500 nM |
| COc1cc2cc(c1OC)OCCCC(OC(=O)CC1COC1)CCN1CCCN(CCCOC2=O)CC1 (centres unmarked) [Compound 66, 74,75-dimethoxy-6-oxo-5,8-dioxa-1(1,4)-diazepana-7(1,3)-benzenacyclotetradecaphane-12-yl 2-(oxetan-3-yl)acetate] | 1 to 20 nM |
| COc1cc2cc(c1OC)OCCCC(OC(=O)[C@H]1[C@@H]3COC[C@@H]31)CCN1CCCN(CCCOC2=O)CC1 (stereo partly drawn) [Compound 67, 74,75-dimethoxy-6-oxo-5,8-dioxa-1(1,4)-diazepana-7(1,3)-benzenacyclotetradecaphane-12-yl (1R,5S,6r)-3-oxabicyclo[3.1.0]hexane-6-carboxylate] | 20 to 500 nM |
| COc1cc2cc(c1OC)OCCCC(OC(=O)C1CNC(=O)C1)CCN1CCCN(CCCOC2=O)CC1 (centres unmarked) [Compound 68, 74,75-dimethoxy-6-oxo-5,8-dioxa-1(1,4)-diazepana-7(1,3)-benzenacyclotetradecaphane-12-yl 5-oxopyrrolidine-3-carboxylate] | 1 to 20 nM |
| COc1cc2cc(c1OC)OCCCC(OC(=O)C1CC(=O)N(Cc3ccccc3)C1)CCN1CCCN(CCCOC2=O)CC1 (centres unmarked) [Compound 69, 74,75-dimethoxy-6-oxo-5,8-dioxa-1(1,4)-diazepana-7(1,3)-benzenacyclotetradecaphane-12-yl 1-benzyl-5-oxopyrrolidine-3-carboxylate] | 1 to 20 nM |
| COc1cc2cc(c1OC)OCCCC(OC(=O)C1CCC(OC)CC1)CCN1CCCN(CCCOC2=O)CC1 (centres unmarked) [Compound 70, 74,75-dimethoxy-6-oxo-5,8-dioxa-1(1,4)-diazepana-7(1,3)-benzenacyclotetradecaphane-12-yl 4-methoxycyclohexane-1-carboxylate] | 1 to 20 nM |
| COc1cc2cc(c1OC)OCCCC(OC(=O)c1c(F)cccc1F)CCN1CCCN(CCCOC2=O)CC1 (centres unmarked) [Compound 71, 74,75-dimethoxy-6-oxo-5,8-dioxa-1(1,4)-diazepana-7(1,3)-benzenacyclotetradecaphane-12-yl 2,6-difluorobenzoate] | 1 to 20 nM |
